The record followed here is patent EP1311531B1, “STEROID DERIVED ANTIBIOTICS” (Brigham Young University, priority 2000, dated 2002).

Experiment [1] has as its system Salmonella typhimurium ATCC 14028. In words: MIC and MBC measurement. To be noted: Salmonella enterica. Type of experiment: cell-based. The procedure:
(§1) General: Microorganisms. Reference strains were purchased from the American Type Culture Collection (Rockville, MD) or Bactrol disks from Difeo Laboratories (Detroit, MI). […] Bacterial strains were maintained on Mueller-Hinton agar plates, and Candida albicans was maintained on Sabouraud Dextrose agar plates.
(§2) Aliquots (20 mL) of the homogeneous solution were then poured in sterile plastic petri dishes (100 x 15 mm, Fisher Scientific). Solutions of compounds were made by dissolving the HCl salt of the respective compound into an appropriate amount of deionized and sterilized water followed by microfiltration.
(§3) Aliquots of 1 mL of the suspension were added to test tubes containing 1 mL TSB and incrementally varied concentrations of cholic acid derivatives and/or erythromycin or novobiocin. […] Additionally, an alliquot from each of the samples showing no measurable turbidity was subcultured on TSA plates (alliquots were diluted to provide fewer than 300 CFU). Colonies that grew on the subculture after overnight incubation were counted and the number of CFU/mL in the samples were calculated. The calculated values were compared to the number of CFU/mL in the original inoculum.

For experiment [2], the system named is Candida albicans ATCC 90028. Kind of experiment: MIC and MBC measurement. The experiment is classed as cell-based. The conditions noted are these: ATCC90028, Table 10. The procedure:
as §1, §2, §3

Experiment [3] deals with Streptococcus pyogenes ATCC 19615. Kind of experiment: MIC and MBC measurement. The experiment is classed as cell-based. The conditions noted are these: ATCC19615, Table 10. The protocol: as §1, §2, §3
Experiment [4] has as its system Klebsiella pneumonia ATCC 13883. Kind of experiment: MIC and MBC measurement. The experiment is classed as cell-based. To be noted: Klebsiella pneumoniae, ATCC13883. The protocol: as §1, §2, §3
Experiment [5] has as its system Pseudomonas aeruginosa ATCC 27853. In words: MIC and MBC measurement. The experiment is classed as cell-based. The procedure: as §1, §2, §3
Experiment [6] concerns Enterococcus faeculis ATCC 29212. Kind of experiment: MIC and MBC measurement. The experiment is classed as cell-based, Enterococcus faecalis. To be noted: ATCC29212. The protocol:
as §1, §2, §3

Experiment [7] deals with E. coli (ATCC 10798). In words: MIC and MBC measurement. The experiment is classed as cell-based, Escherichia coli. The procedure: as §1, §2, §3
Experiment [8] relates to Salmonella typhimurium ATCC 14028. In words: Sensitization to erythromycin, novobiocin or rifampicin (permeabilization, FIC). Type of experiment: cell-based. The conditions noted are these: Table 13; with rifampicin (order of b151); Salmonella typhimurium ATCC 14028^b (footnote b not given).
Experiment [9] concerns outer membrane of Gram-negative bacteria. Kind of experiment: Luciferin/luciferase luminescence assay of membrane permeabilization. Type of experiment: cell-based, E. coli. To be noted: Escherichia coli; permeabilization of the outer membrane allowing luciferin to enter the cell; read-out: half maximum luminescence. The protocol: Using a technique described by J. M. Shupp, S. E. Travis, L. B. Price, R. F. Shand, P. Keim, RAPID BACTERIAL PERMEABILIZATION REAGENT USEFUL FOR ENZYME ASSAYS, Biotechniques, 1995, vol.
In this assay, E. coli containing an inducible luciferase coding plasmid was incubated with the inducing agent […], then treated with a lysis buffer containing either PMB or one of the cholic acid derivatives, and Triton X-100. Luciferin and ATP were then added. […] The concentrations of the membrane disrupting agents (PMB and the cholic acid derivatives) were varied, and the resulting luminescence was measured.

The mark [10] stands for this setting: ATCC27853, Table 6, P. aureginosa (ATCC 27853).
[11] abbreviates: ATCC27853, Table 10, Pseudomonas aeruginosa ATCC 27853.
Where [12] appears, read: Escherichia coli, ATCC10798, Table 1, E. coli (ATCC 10798), read-out: MBC.
Where [13] appears, read: Escherichia coli, ATCC10798, Table 1, E. coli (ATCC 10798), read-out: MIC.
Setting [14] is: ATCC10798, Table 9, Escherichia coli (ATCC 10798), read-out: MBC.
The mark [15] stands for this setting: ATCC10798, Table 9, Escherichia coli (ATCC 10798), read-out: MIC.
[16] abbreviates: Table 9, Escherichia coli (ATCC 10798).

Values after ≈ are worked out from the molar mass of the structure shown. Where two headings read alike, the source gives them in different places. Where only a bound is given, the exact number is not on record here.

Turning to `C[C@H](CCCN(C)Cc1ccccc1)[C@H]1CC[C@H]2[C@@H]3[C@H](OCCN)C[C@@H]4C[C@H](OCCN)CC[C@]4(C)[C@H]3C[C@H](OCCN)[C@]12C` [Compound 1], the MBC was greater than 25 µg/mL in experiment [1]; greater than 50 µg/mL in experiment [2]; 4.4 µg/mL (≈ 7.02 µM) in experiment [3]; greater than 36 µg/mL in experiment [4]; greater than 50 µg/mL in experiment [5] (setting [10]); 38 µg/mL (≈ 60.6 µM) in experiment [5] (setting [11]). In addition, the results for the MBC in experiment [6] and in [7] (setting [12]) were 50 µg/mL (≈ 79.7 µM) and 34 µg/mL (≈ 54.2 µM), respectively. Further, the MIC (as a rule, the lowest concentration that inhibits growth of the organism) came out at 21 µg/mL (≈ 33.5 µM) in [1]; 49 µg/mL (≈ 78.2 µM) in [2]; 3 µg/mL (≈ 4.78 µM) in experiment [3]; 24 µg/mL (≈ 38.3 µM) in experiment [4]; 15 µg/mL (≈ 23.9 µM) in experiment [5] (setting [10]); 26 µg/mL (≈ 41.5 µM) in [5] (setting [11]). The minimum inhibitory concentration (MIC) in [6] is 4.9 µg/mL (≈ 7.82 µM); in experiment [7] (setting [13]), 20 µg/mL (≈ 31.9 µM). Further, the FIC in [8] came out at 0.089. In addition, the “concentration required for bacterial growth inhibition” value in experiment [8] is 0.84 µg/mL.
As for `C[C@H](CCCN(C)Cc1ccccc1)[C@H]1CC[C@H]2[C@@H]3[C@H](OCCCNC(=N)N)C[C@@H]4C[C@H](OCCCNC(=N)N)CC[C@]4(C)[C@H]3C[C@H](OCCCNC(=N)N)[C@]12C` [Compound 5], the MBC in experiment [1] is 3.8 µg/mL (≈ 4.78 µM); in [2] it was 50 µg/mL (≈ 62.9 µM); in experiment [3] it was 2.1 µg/mL (≈ 2.64 µM); in [4], 6.7 µg/mL (≈ 8.43 µM); in experiment [5] (setting [10]), 15 µg/mL (≈ 18.9 µM); in experiment [5] (setting [11]), 9.9 µg/mL (≈ 12.5 µM). For the same compound, the MBC in experiment [6] stood at 16 µg/mL (≈ 20.1 µM); in experiment [7] (setting [12]) it was 4 µg/mL (≈ 5.03 µM). The MIC turned out to be 2.2 µg/mL (≈ 2.77 µM) in experiment [1]; 11 µg/mL (≈ 13.8 µM) in experiment [2]; 2 µg/mL (≈ 2.52 µM) in experiment [3]; 3 µg/mL (≈ 3.77 µM) in experiment [4]; 6 µg/mL (≈ 7.55 µM) in [5] (setting [10]); 5.9 µg/mL (≈ 7.42 µM) in experiment [5] (setting [11]). In addition, the minimal inhibitory concentration (MIC) was found to be 2.2 µg/mL (≈ 2.77 µM) in experiment [6] and 2 µg/mL (≈ 2.52 µM) in [7] (setting [13]).
As to `C[C@H](CCCN(C)Cc1ccccc1)[C@H]1CC[C@H]2[C@@H]3[C@H](OCCCN)C[C@@H]4C[C@H](OCCCN)CC[C@]4(C)[C@H]3C[C@H](OCCCN)[C@]12C` [Compound 2], the EC50 in experiment [9] is 7 µg/mL (≈ 10.5 µM). For the same compound, the MBC in experiment [1] was 16 µg/mL (≈ 23.9 µM); in experiment [2], 42 µg/mL (≈ 62.8 µM); in [3], 2.3 µg/mL (≈ 3.44 µM); in experiment [4], 17 µg/mL (≈ 25.4 µM); in [5] (setting [10]), 40 µg/mL (≈ 59.8 µM); in experiment [5] (setting [11]), greater than 17 µg/mL. In addition, the MBC in [6] turned out to be 19 µg/mL (≈ 28.4 µM); in experiment [7] (setting [12]), 16 µg/mL (≈ 23.9 µM). For the same compound, the minimum inhibitory concentration (MIC) in [1] was 13 µg/mL (≈ 19.4 µM); in [2], 30 µg/mL (≈ 44.8 µM); in experiment [3], 2 µg/mL (≈ 2.99 µM); in [4], 14 µg/mL (≈ 20.9 µM); in experiment [5] (setting [10]) it was 9 µg/mL (≈ 13.5 µM); in [5] (setting [11]), 11 µg/mL (≈ 16.4 µM). In addition, the MIC was 3.4 µg/mL (≈ 5.08 µM) in experiment [6] and 7 µg/mL (≈ 10.5 µM) in experiment [7] (setting [13]). The FIC in [8] was 0.079. Further, in experiment [8], the “concentration required for bacterial growth inhibition” value worked out at 0.39 µg/mL.
In the case of `CCCOCCC[C@@H](C)[C@H]1CC[C@H]2[C@@H]3[C@H](OCCCN)C[C@@H]4C[C@H](OCCCN)CC[C@]4(C)[C@H]3C[C@H](OCCCN)[C@]12C` [Compound 112], the MBC in experiment [1] turned out to be 90 µg/mL (≈ 148 µM); in experiment [2], 45 µg/mL (≈ 74 µM); in experiment [3], 3 µg/mL (≈ 4.93 µM); in [4], 27 µg/mL (≈ 44.4 µM); in experiment [5] (setting [11]), 6.4 µg/mL (≈ 10.5 µM); in experiment [6], 4.7 µg/mL (≈ 7.73 µM). Also, in experiment [7] (setting [14]), the MBC stood at 17 µg/mL (≈ 28 µM). Further, the MIC in experiment [1] worked out at 86 µg/mL (≈ 141 µM); in experiment [2], 41 µg/mL (≈ 67.4 µM); in [3] it was 2.4 µg/mL (≈ 3.95 µM); in experiment [4], 23 µg/mL (≈ 37.8 µM); in experiment [5] (setting [11]) it was 4.6 µg/mL (≈ 7.57 µM); in experiment [6], 3.1 µg/mL (≈ 5.1 µM). Also, in experiment [7] (setting [15]), the MIC came to 12 µg/mL (≈ 19.7 µM). The FIC in experiment [8] is on record as 0.051. Also, in [8], the “concentration required for bacterial growth inhibition” value is given as 0.10 µg/mL.
As to `C[C@]12CC[C@@H](OCCCN)C[C@H]1C[C@@H](OCCCN)[C@@H]1[C@@H]2C[C@H](OCCCN)[C@]2(C)[C@@H](O)CC[C@@H]12` [Compound 106], the MBC is greater than 100 µg/mL in experiment [1]; 92 µg/mL (≈ 186 µM) in [2]; 37 µg/mL (≈ 74.6 µM) in experiment [3]; 100 µg/mL (≈ 202 µM) in experiment [4]; 97 µg/mL (≈ 196 µM) in [5] (setting [11]); greater than 100 µg/mL in experiment [6]. Besides, the MBC in experiment [7] (setting [14]) is greater than 200 µg/mL. Also, the MIC in experiment [1] was greater than 100 µg/mL; in experiment [2] it was 75 µg/mL (≈ 151 µM); in [3], 18 µg/mL (≈ 36.3 µM); in experiment [4], greater than 100 µg/mL; in [5] (setting [11]) it was 85 µg/mL (≈ 171 µM); in experiment [6], 12 µg/mL (≈ 24.2 µM). For the same compound, the MIC in experiment [7] (setting [15]) came out at 140 µg/mL (≈ 282 µM). In addition, the FIC in experiment [8] stood at 0.064. The “concentration required for bacterial growth inhibition” value in experiment [8] is reported as 1.4 µg/mL.
Regarding `C[C@H](CCCO)[C@H]1CC[C@H]2[C@@H]3[C@H](OCCCN)C[C@@H]4C[C@H](OCCCN)CC[C@]4(C)[C@H]3C[C@H](OCCCN)[C@]12C` [Compound 10], the EC50 in experiment [9] came to 33 µg/mL (≈ 58.3 µM). Moreover, the MBC in experiment [1] was greater than 17 µg/mL; in [2], 29 µg/mL (≈ 51.2 µM); in [3] it was 5.8 µg/mL (≈ 10.2 µM); in experiment [4], 50 µg/mL (≈ 88.4 µM); in experiment [5] (setting [11]), 36 µg/mL (≈ 63.6 µM); in experiment [6] it was 19 µg/mL (≈ 33.6 µM). The MBC in [7] (setting [12]) and in experiment [7] (setting [16]) was 60 µg/mL (≈ 106 µM) each time. Besides, the minimal inhibitory concentration (MIC) in experiment [1] amounted to 43 µg/mL (≈ 76 µM); in [2] it was 14 µg/mL (≈ 24.7 µM); in [3], 4.2 µg/mL (≈ 7.42 µM); in experiment [4] it was 47 µg/mL (≈ 83.1 µM); in experiment [5] (setting [10]), 23 µg/mL (≈ 40.6 µM); in experiment [5] (setting [11]), 21 µg/mL (≈ 37.1 µM). The MIC stood at 3.3 µg/mL (≈ 5.83 µM) in [6], 36 µg/mL (≈ 63.6 µM) in [7] (setting [13]) and 36 µg/mL (≈ 63.6 µM) in [7] (setting [16]). The FIC in experiment [8] came to 0.063. The “concentration required for bacterial growth inhibition” value in experiment [8] was found to be 0.55 µg/mL.
